Data as given in patent US6746668B2, “Apo-2 ligand” (Genentech, Inc., priority 1996, dated 2004).

Key:
[1] = tested on: ME-180 (human cervical carcinoma); assay: Apoptosis by FACS, ME-180 cells; type: cell-based
Experimental: (§1) The 9D cells (FIG. 2B), Raji cells (FIG. 2C), and Jurkat cells (FIG. 2D) were incubated (1×10^6 cells/well) for 24 hours with a media control (left panels), Apo-2 ligand (3 μg/ml, prepared as described in Example 3) (center panels), or […], CH11 (1 μg/ml) (right panels). The cells were then washed, stained with PI and with […] (FITC)-conjugated annexin V (purchased from Brand Applications) and analyzed by flow cytometry. Cells negative for both PI and annexin V staining (quadrant 3) represent live cells; PI-negative, annexin V-positive staining cells (quadrant 4) represent early apoptotic cells; PI-positive, annexin V-positive staining cells (quadrant 2) represent primarily cells in late stages of apoptosis. […]
(§2) In the assay, 1×10^6 cells of each cell line were incubated for 24 hours with a media control, Apo-2 ligand (3 μg/ml, prepared as described in Example 3), or anti-Apo-1 monoclonal antibody, CH11 (1 μg/ml). Following the incubation, apoptosis was measured by FACS analysis, as described in Example 4.

[2] = tested on: 293 (adenovirus-transformed human embryonic kidney cells); assay: Apoptosis by FACS, 293 cells; type: cell-based
Experimental: as §1, §2

9D cells [3] = assay: Internucleosomal DNA fragmentation, 9D cells; type: cell-based, human; settings: 6 hours, Apo-2 ligand 3 μg/ml
Experimental: (§3) The activation of internucleosomal DNA fragmentation by Apo-2 ligand was also analyzed. Jurkat cells (left lanes) and 9D cells (right lanes) were incubated (2×10^6 cells/well) for 6 hours with a media control or Apo-2 ligand (3 μg/ml, prepared as described in Example 3), The DNA was then extracted from the cells and labeled with ^32P-ddATP using terminal transferase. The labeled DNA samples were subjected to electrophoresis on 2% agarose gels and later analyzed by autoradiography [Moore et al., Cytotechnology, 17:1-11 (1995)]. […] Such DNA fragmentation is characteristic of apoptosis [Cohen, Advances in Immunol., 50:55-85 (1991)].

[4] = tested on: HeLa (human cervical carcinoma); assay: Apoptosis by FACS, HeLa cells; type: cell-based
Experimental: as §1, §2

[5] = tested on: A549 (human lung carcinoma); assay: Apoptosis by FACS, A549 cells; type: cell-based
Experimental: as §1, §2

[6] = tested on: Raji cells (human Burkitt's lymphoma B cell line); assay: Apoptosis by FACS (PI / FITC-annexin V), Raji cells; type: cell-based; settings: 24 hours, CH11 1 μg/ml
Experimental: (§4) The effects of the Apo-2 ligand on the 9D cells, as well as on Raji cells (human Burkitt's lymphoma B cell line, ATCC CCL 86) and Jurkat cells (human acute T cell leukemia cell line, ATCC TIB 152) were further analyzed by FACS. The FACS analysis was conducted, using established criteria for apoptotic cell death, namely, the relation of fluorescence staining of the cells with two markers: (a) propidium iodide (“PI”) dye, which stains apoptotic but not live cells, and (b) a fluorescent derivative of the protein, annexin V, which binds to the exposed phosphatidylserine found on the surface of apoptotic cells, but not on live cells [Darzynkiewicz et al., Methods in Cell Biol., 41:15-38 (1994); Fadok et al., J. Immunol., 148:2207-2214 (1992); Koopman et al., Blood, 84:1415-1420 (1994)].
(§5) The 9D cells (FIG. 2B), Raji cells (FIG. 2C), and Jurkat cells (FIG. 2D) were incubated (1×10^6 cells/well) for 24 hours with a media control (left panels), Apo-2 ligand (3 μg/ml, prepared as described in Example 3) (center panels), or […], CH11 (1 μg/ml) (right panels). The cells were then washed, stained with PI and with […] (FITC)-conjugated annexin V (purchased from Brand Applications) and analyzed by flow cytometry. […]

[7] = tested on: peripheral blood T lymphocytes; assay: Apoptosis by FACS, peripheral blood T cells; type: cell-based, human; settings: for % apoptotic cells: Apo-2L 3 μg/ml, mean ±SE
[8] = tested on: U-937 (human hystiocytic lymphoma); assay: Apoptosis by FACS, U-937 cells; type: cell-based
Experimental: as §1, §2

[9] = tested on: Jurkat cells (human acute T cell leukemia cell line); assay: Apoptosis by FACS (PI / FITC-annexin V), Jurkat cells; type: cell-based; settings: 24 hours, CH11 1 μg/ml
Experimental: as §4, §5

9D cells [10] = assay: Time course and dose-dependence of cell death (dead/live counts, hemocytometer), 9D cells; type: cell-based, human
Experimental: To examine the time-course of the Apo-2 ligand apoptotic activity, 9D cells were incubated in microtiter dishes (5×10^4 cells/well) with a media control or Apo-2 ligand (3 μg/ml, prepared as described in Example 3) for a period of time ranging from 0 hours to 50 hours. Following the incubation, the numbers of dead and live cells were determined by microscopic examination using a hemocytometer.
To determine dose-dependency of Apo-2 ligand-induced cell death, 9D cells were incubated (5×10^4 cells/well) for 24 hours with serial dilutions of a media control or Apo-2 ligand (prepared as described in Example 3). The numbers of dead and live cells following the incubation were determined as described above. The results are illustrated in FIG. 3B. Specific apoptosis was determined by subtracting the % apoptosis in the control from % apoptosis in Apo-2 ligand treated cells. Half-maximal activation of apoptosis occurred at approximately 0.1 μg/ml (approximately 1 nM), and maximal induction occurred at about 1 to about 3 μg/ml (approximately 10 to 30 nM).

[11] = tested on: MCF7 (human breast carcinoma); assay: Apoptosis by FACS, MCF7 cells; type: cell-based
Experimental: as §1, §2

Jurkat cells = assay: Internucleosomal DNA fragmentation, Jurkat cells; type: cell-based, human; settings: 6 hours, Apo-2 ligand 3 μg/ml
Experimental: as §3

[12] = tested on: peripheral blood B lymphocytes; assay: Apoptosis by FACS, peripheral blood B cells; type: cell-based, human; settings: for % apoptotic cells: 3 days, Apo-2L 3 μg/ml, mean ±SE
Experimental: Peripheral blood mononuclear cells (“PBMC”) were isolated from the blood of human donors by Ficoll density gradient centrifugation using Lymphocyte Separation Medium (LSM®, Organon Teknika). An isolated population of T cells was prepared from the PBMC by removal of B cells through surface Ig binding to an anti-Ig column and removal of monocytes through Fc receptor binding to an Ig column (R & D Systems). An isolated population of B cells was prepared from the PBMC by complement-mediated elimination of T cells reacted with the anti-CD3 antibody produced by the OKT3 myeloma (ATCC, CRL 8001) and of monocytes reacted with a monocyte-specific antibody produced by the 4F2C13 hybridoma (ATCC, HB 22). Additional monocyte removal was accomplished by adherence to plastic.
The freshly isolated peripheral blood B or T cells (1×10^6 cells/well) were cultured for 3 days in the presence of a media control or Apo-2 ligand (3 μg/ml, prepared as described in Example 3). For activation, B cells were treated simultaneously with lipopolysaccharide ([…], 1 μg/ml), and T cells were treated with phorbol myristate acetate (“PMA”, 10 ng/ml) plus ionomycin (1 μg/ml) (Sigma). For interleukin-2 (“IL-2”) pretreatment, T cells were cultured for 3-5 days in the presence of IL-2 (50 U/ml) (Genzyme) before exposure to Apo-2 ligand. Apoptosis was determined using FACS analysis essentially as described above in Example 4. However, B cells were gated by anti-CD19/CD20 antibodies (Jackson Immunoresearch), and T cells were gated by anti-CD4/CD8 antibodies (Jackson Immunoresearch). The results are shown in Table 2 below, representing means ±SE of independent experiments [B lymphocytes—9 experiments; T lymphocytes—8 experiments; T lymphocytes plus IL-2-5 experiments], in which 50,000 cells were analyzed per data point. Statistical analysis was performed using the student t-test. In Table 2, a=p<0.05 and b=p<0.02 relative to the respective control.

[13] = tested on: 9D cells (EBV-transformed human peripheral blood B cells); assay: Apoptosis by FACS (PI / FITC-annexin V), 9D cells; type: cell-based; settings: 24 hours, CH11 1 μg/ml
Experimental: as §4, §5

[14] = Apo-2 ligand as compared to CH11 anti-Apo-1 antibody

Apo-2L: purified, soluble recombinant human Apo-2 ligand: His10-tagged residues 114-281 of SEQ ID NO:1, expressed in baculovirus-infected Sf9 cells (Example 3)
sensitivity to induction of apoptosis [1]: quite sensitive
% apoptotic cells ([1]; 24 hours, Apo-2L 3 μg/ml, CH11 1 μg/ml, control 8.6): 80.7%
sensitivity to induction of apoptosis [2]: resistant
% apoptotic cells ([2]; 24 hours, Apo-2L 3 μg/ml, CH11 1 μg/ml, control 12.3): 12.2%
internucleosomal DNA fragmentation (9D cells [3]): induced internucleosomal DNA fragmentation
% apoptotic cells ([4]; 24 hours, Apo-2L 3 μg/ml, CH11 1 μg/ml, control 5.3): 18.6%
sensitivity to induction of apoptosis [4, 14]: equally sensitive
% apoptotic cells ([5]; 24 hours, Apo-2L 3 μg/ml, CH11 1 μg/ml, control 16.5): 74.6%
sensitivity to induction of apoptosis [5, 14]: markedly more sensitive
% apoptotic cells ([6]; Apo-2L 3 μg/ml, control 35.9): 73.4%
induction of apoptosis (annexin V binding, PI uptake), in words ([6]; Apo-2 ligand 3 μg/ml): induced a similar response
induction of apoptosis, in words ([7]; T cells activated with PMA and ionomycin): induced significant apoptosis
% apoptotic cells ([7]; T lymphocytes + PMA 10 ng/ml / ionomycin 1 μg/ml, 3 days, control 40.3 ± 4.4): 54.2%
% apoptotic cells ([7]; T lymphocytes, IL-2 (50 U/ml, 3-5 days) pretreatment, 5 experiments, control 13.7 ± 1.2): 34.5%
% apoptotic cells ([7]; T lymphocytes, no treatment, 3 days, 8 experiments, control 6.3 ± 0.6): 8.2 ± 0.8%
sensitization to Apo-2 ligand-induced death, in words ([7]; peripheral T cells pretreated with IL-2): did sensitize
% apoptotic cells ([8]; 24 hours, Apo-2L 3 μg/ml, CH11 1 μg/ml, control 3.6): 62.3%
sensitivity to induction of apoptosis [8, 14]: markedly more sensitive
% apoptotic cells ([9]; Apo-2L 3 μg/ml, control 5.9): 77.0%
induction of apoptosis (annexin V binding, PI uptake), in words ([9]; Apo-2 ligand 3 μg/ml): induced a similar response
half-maximal activation of apoptosis (9D cells [10]; 24 hours, specific apoptosis (control subtracted)): approximately 0.1 μg/ml
EC50 (9D cells [10]; 24 hours, specific apoptosis (control subtracted), read-out: half-maximal activation of apoptosis): ~1 nM
time to maximal levels of cell death (9D cells [10]; Apo-2 ligand 3 μg/ml, 0 to 50 hours): ≤ 24 h
% apoptotic cells ([11]; 24 hours, Apo-2L 3 μg/ml, CH11 1 μg/ml, control 39.9): 47.3%
sensitivity to induction of apoptosis [11, 14]: equally sensitive
internucleosomal DNA fragmentation (Jurkat cells): induced internucleosomal DNA fragmentation
induction of apoptosis, in words ([12]; B cells activated by LPS): induced significant apoptosis
% apoptotic cells ([12]; B lymphocytes + LPS 1 μg/ml, control 44.8 ± 2.8): 55.9%
% apoptotic cells ([12]; B lymphocytes, no treatment, 9 experiments, control 40.1 ± 4.1): 53.2%
induction of apoptosis, in words ([12]; unstimulated B cells): induced significant apoptosis
% apoptotic cells ([13]; Apo-2L 3 μg/ml, control 22.5): 92.4%
induction of apoptosis (annexin V binding, PI uptake), in words ([13]; Apo-2 ligand 3 μg/ml): induced apoptosis
